DBAASP
In brackets after ≈: the same amount, converted by molar mass. Several values for one entry are separate records, joined by “and”; a condition that tells them apart may be missing. Equal values may be shown once. Values belong to the molecule of their own block, whether it stands above or below them.

How the values were obtained:
Assay in all cases: ≥ marks a high value that may be exact or a test limit, other limits are often not marked, values filed in µg/mL are converted to µM
[1] = system: Bacillus megaterium NRRL B-4272
[2] = system: Bacillus subtilis ATCC 6633
[3] = system: Escherichia coli ATCC 10536
[4] = system: Staphylococcus aureus ATCC 9144
[5] = system: Staphylococcus epidermidis ATCC 12228
[6] = system: Candida albicans ATCC 90028
[7] = system: Trichophyton rubrum ATCC 28189
[8] = system: Staphylococcus aureus ATCC 25923
[9] = system: Escherichia coli ATCC 25922
[10] = system: Staphylococcus aureus JE2
[11] = system: Cryptococcus neoformans var. grubii H99
[12] = system: Staphylococcus aureus ATCC 43300
[13] = system: Klebsiella pneumoniae ATCC 700603
[14] = system: Escherichia coli K-12
[15] = system: Pseudomonas aeruginosa ATCC 27853
[16] = system: Acinetobacter baumannii ATCC 19606
[17] = system: Escherichia coli DH5alpha
[18] = system: Staphylococcus epidermidis
[19] = system: Pseudomonas aeruginosa ATCC BAA-2111
[20] = system: Escherichia coli NBRC 3972
[21] = system: Staphylococcus aureus NBRC 13276
[22] = system: Staphylococcus aureus
[23] = system: Salmonella enterica subsp. enterica NBRC 100797
[24] = system: Pseudomonas aeruginosa NBRC 13275
[25] = system: Klebsiella pneumoniae NBRC 3512
[26] = system: Proteus vulgaris NBRC 3045
[27] = system: Escherichia coli MG1655
[28] = system: Vibrio cholerae
[29] = system: Bacillus subtilis MTCC 14416
[30] = system: Enterococcus faecalis ATCC 29212
[31] = system: Staphylococcus aureus MTCC 9542
[32] = system: Sporothrix schenckii
[33] = system: Klebsiella pneumoniae ATCC 27736
[34] = system: Escherichia coli ATCC 9637
[35] = system: Aspergillus fumigatus
[36] = system: Bacillus cereus
[37] = system: Trichophyton mentagrophytes
[38] = system: Candida parapsilosis ATCC 22019
[39] = system: Pseudomonas aeruginosa ATCC BAA-427
[40] = system: Bacillus subtilis ATCC 6051
[41] = system: Bacillus licheniformis ATCC 14580
[42] = system: Bacillus cereus ATCC 14579
[43] = system: Staphylococcus aureus ATCC 29213
[44] = system: Enterococcus faecalis 1F-1
[45] = system: Salmonella enterica ATCC H9812
[46] = system: Bacillus amyloliquefaciens ATCC 23842
[47] = system: Pseudomonas aeruginosa PAO1
[48] = system: Enterococcus faecium 5F-10
[49] = system: Proteus mirabilis ATCC 35659

Compound: CC[C@H](C)[C@H](NC(=O)[C@H](Cc1ccccc1)NC(=O)[C@H](CCCCN)NC(=O)[C@H](CCCCN)NC(=O)[C@H](Cc1ccccc1)NC(=O)[C@H](CO)NC(=O)[C@H](Cc1cnc[nH]1)NC(=O)[C@H](CC(C)C)NC(=O)[C@H](C)NC(=O)[C@H](CCCCN)NC(=O)CNC(=O)CNC(=O)CN)C(=O)N[C@@H](CCCCN)C(=O)N[C@@H](C)C(=O)N[C@@H](Cc1ccccc1)C(=O)N[C@H](C(=O)NCC(=O)N[C@@H](CCC(=O)O)C(=O)N[C@H](C(=O)N[C@@H](CCSC)C(=O)N[C@@H](CC(N)=O)C(=O)N[C@@H](CO)C(N)=O)[C@@H](C)CC)C(C)C [GGGKALHSFKKFIKAFVGEIMNS]
MIC [1]: 12 µM (≈ 29.6 µg/mL) | MIC [2]: 10 µM (≈ 24.7 µg/mL) | MIC [3]: 5 µM (≈ 12.3 µg/mL) | MIC [4]: ≥ 40 µM

Compound: CC[C@H](C)[C@H](NC(=O)[C@H](Cc1c[nH]c2ccccc12)NC(=O)[C@H](CCCCN)NC(=O)[C@H](Cc1cnc[nH]1)NC(=O)[C@H](Cc1ccccc1)NC(=O)[C@H](CCC(=O)O)NC(=O)[C@H](CCCN=C(N)N)NC(=O)[C@H](CC(C)C)NC(=O)[C@@H](N)Cc1ccccc1)C(=O)N[C@@H](CCC(=O)O)C(=O)N[C@@H](CCCN=C(N)N)C(=O)N[C@H](C(=O)N[C@H](C(=O)NCC(=O)N[C@@H](Cc1c[nH]c2ccccc12)C(=O)N[C@@H](CC(C)C)C(=O)NCC(=O)N[C@@H](CCCCN)C(=O)N[C@H](C(=O)N[C@@H](Cc1ccccc1)C(N)=O)C(C)C)C(C)C)C(C)C [FLREFHKWIERVVGWLGKVF]
MIC [5]: 21.3 µM (≈ 54.3 µg/mL) | MIC [6]: ≥ 32 µM | MIC [7]: ≥ 256 µM | MIC [8]: 32 µM (≈ 81.5 µg/mL)

Compound: CC[C@H](C)[C@H](NC(=O)[C@@H](NC(=O)[C@H](CO)NC(=O)[C@H](C)NC(=O)[C@@H](NC(=O)[C@H](CCCN=C(N)N)NC(=O)[C@H](CCCN=C(N)N)NC(=O)[C@@H](NC(=O)[C@@H](NC(=O)[C@H](CC(=O)O)NC(=O)[C@H](Cc1ccccc1)NC(=O)[C@H](CC(C)C)NC(=O)CN)C(C)C)[C@@H](C)CC)C(C)C)C(C)C)C(=O)NCC(=O)NCC(=O)N[C@@H](CC(C)C)C(=O)O [GLFDVIRRVASVIGGL]
MIC [9]: 19.1 µM (≈ 32 µg/mL) | MIC [10]: 9.57 µM (≈ 16 µg/mL) | MIC [6]: 9.57 µM (≈ 16 µg/mL) | MIC [11]: 9.57 µM (≈ 16 µg/mL) | MIC [12]: 9.57 µM (≈ 16 µg/mL) | MIC [13]: > 19.1 µM | MIC [14]: 19.1 µM (≈ 32 µg/mL) | MIC [15]: > 19.1 µM | MIC [16]: 19.1 µM (≈ 32 µg/mL)

Compound: CC(C)C[C@H](NC(=O)[C@H](CCCCN)NC(=O)CNC(=O)[C@H](C)NC(=O)[C@H](CCCCN)NC(=O)[C@H](CCCCN)NC(=O)[C@H](CC(C)C)NC(=O)[C@H](CC(C)C)NC(=O)[C@H](CCCCN)NC(=O)CNC(=O)[C@H](C)NC(=O)[C@H](CCCCN)NC(=O)[C@H](CCCCN)NC(=O)[C@H](CC(C)C)NC(=O)[C@H](CC(C)C)NC(=O)[C@@H](N)CCCCN)C(=O)N[C@@H](CC(C)C)C(=O)N[C@@H](CCCCN)C(=O)N[C@@H](CCCCN)C(=O)N[C@@H](C)C(=O)NCC(N)=O [KLLKKAGKLLKKAGKLLKKAG]
MIC [17]: 3.12 µM and 3.1 µM | MIC [18]: 1.56 µM (≈ 3.48 µg/mL) | MIC [19]: 1.39 µM (≈ 3.1 µg/mL) | MIC [20]: 3.12 µM and 3.1 µM | MIC [21]: 5.59 µM (≈ 12.5 µg/mL) | MIC [22]: 12.5 µM (≈ 27.9 µg/mL) | MIC [23]: 1.6 µM (≈ 3.57 µg/mL) | MIC [24]: 1.56 µM and 0.716 µM | MIC [25]: 0.716 µM (≈ 1.6 µg/mL) | MIC [26]: ≥ 100 µM

Compound: CC(C)C[C@H](NC(=O)[C@H](CC(C)C)NC(=O)[C@@H](N)CCC(=O)O)C(=O)N[C@@H](CO)C(=O)N[C@@H](CCCN=C(N)N)C(=O)N[C@H](C(=O)O)C(C)C [ELLSRV]
MIC [40]: ≥ 179 µM | MIC [41]: ≥ 179 µM | MIC [42]: ≥ 179 µM | MIC [9]: 89.4 µM (≈ 64 µg/mL) | MIC [43]: > 179 µM | MIC [44]: ≥ 179 µM | MIC [45]: ≥ 89.4 µM | MIC [46]: ≥ 179 µM | MIC [47]: > 179 µM | MIC [48]: ≥ 179 µM | MIC [49]: ≥ 179 µM

The next lines start with results.

MIC [27]: 10.9 µM (≈ 25 µg/mL) | MIC [29]: 21.7 µM (≈ 49.9 µg/mL) | MIC [12]: 10.9 µM (≈ 25 µg/mL) | MIC [30]: 21.7 µM (≈ 49.9 µg/mL) | MIC [31]: 10.9 µM (≈ 25 µg/mL) | MIC [15]: > 43.5 µM
Compound: CC[C@H](C)[C@@H]1NC(=O)[C@H](CCCCN)NC(=O)[C@@H](NC(=O)[C@H](CC(C)C)NC(=O)[C@@H](NC(=O)[C@H](CCC(N)=O)NC(=O)[C@@H]2CCCN2C(=O)[C@H](CC(C)C)NC(=O)[C@H](Cc2ccccc2)NC(=O)[C@H](CC(N)=O)NC(=O)[C@H](C)NC(=O)[C@H](C)NC(=O)[C@H](CC(C)C)NC(=O)CNC(=O)[C@H](C)NC(=O)[C@@H](NC(=O)[C@@H](N)CCCN=C(N)N)[C@@H](C)CC)[C@@H](C)CC)CSSC[C@@H](C(N)=O)NC(=O)[C@H](CCCCN)NC(=O)[C@H](CCCN=C(N)N)NC(=O)[C@H](C)NC1=O [RIAGLAANFLPQILCKIARKC]
MIC [28]: 5.44 µM (≈ 12.5 µg/mL)

MIC [32]: 1.59 µM (≈ 3.15 µg/mL) | MIC [33]: 1.59 µM (≈ 3.15 µg/mL) | MIC [34]: 12.6 µM (≈ 25 µg/mL) | MIC [35]: 3.16 µM (≈ 6.25 µg/mL) | MIC [36]: 1.59 µM (≈ 3.15 µg/mL) | MIC [37]: 3.16 µM (≈ 6.25 µg/mL) | MIC [38]: 3.16 µM (≈ 6.25 µg/mL) | MIC [8]: 0.789 µM (≈ 1.56 µg/mL) | MIC [39]: 12.6 µM (≈ 25 µg/mL)
Compound: CC(C)C[C@H](NC(=O)[C@H](CC(C)C)NC(=O)[C@H](CCCN=C(N)N)NC(=O)[C@H](CCCN=C(N)N)NC(=O)[C@H](CC(C)C)NC(=O)[C@H](Cc1c[nH]c2ccccc12)NC(=O)[C@H](CCCN=C(N)N)NC(=O)[C@H](CC(C)C)NC(=O)[C@H](CC(C)C)NC(=O)[C@H](CCCN=C(N)N)NC(=O)[C@H](CCCN=C(N)N)NC(=O)[C@@H](N)CC(C)C)C(=O)N[C@@H](CCCN=C(N)N)C(=O)N[C@@H](CCCN=C(N)N)C(=O)O [LRRLLRWLRRLLRR]
